Data taken from PMC11641184, “Coumarin Derivative Hybrids: Novel Dual Inhibitors Targeting Acetylcholinesterase and Monoamine Oxidases for Alzheimer’s Therapy” (International Journal of Molecular Sciences, 2024).

What was measured:
human recombinant AChE = biological target: T1, human recombinant AChE (Homo sapiens, UniProt P22303); test: biochemical; conditions: for inhibition at 10 µM: read-out: hAChE % inhibition at 10 μM ± SD, 10 μM inhibitor, human recombinant AChE, n = 3
T1 construct: purchased Aldrich (Milan, Italy)
T1 sequence (P22303 32-614): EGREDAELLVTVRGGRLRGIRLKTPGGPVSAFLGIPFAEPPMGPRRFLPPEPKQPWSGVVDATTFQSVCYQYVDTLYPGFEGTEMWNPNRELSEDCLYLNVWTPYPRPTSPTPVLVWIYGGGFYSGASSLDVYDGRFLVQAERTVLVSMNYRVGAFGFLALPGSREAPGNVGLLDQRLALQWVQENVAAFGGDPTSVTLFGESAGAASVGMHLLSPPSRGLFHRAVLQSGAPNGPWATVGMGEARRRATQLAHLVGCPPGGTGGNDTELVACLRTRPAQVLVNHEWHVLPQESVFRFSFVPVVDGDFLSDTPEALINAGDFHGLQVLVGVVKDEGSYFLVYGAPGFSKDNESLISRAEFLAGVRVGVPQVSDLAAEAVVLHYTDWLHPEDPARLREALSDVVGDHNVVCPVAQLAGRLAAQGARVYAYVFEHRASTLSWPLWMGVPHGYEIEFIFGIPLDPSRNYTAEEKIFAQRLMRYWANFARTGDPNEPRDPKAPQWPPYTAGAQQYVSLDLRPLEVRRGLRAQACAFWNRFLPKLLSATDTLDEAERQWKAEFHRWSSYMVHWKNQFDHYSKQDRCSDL
Protocol: (§1) All enzymes and chemicals were purchased from Aldrich (Milan, Italy). Inhibition assays were performed in 96-well plates (Greiner Bio-One GmbH, Frickenhausen, Germany) using an Infinite M1000 plate reader (Tecan, Milan, Italy). Incubations were performed in triplicate, and final inhibition values were determined as mean ± SEM (n = 3).
The inhibition of human recombinant AChE was determined as already reported by applying Ellman’s spectrophotometric method.

hMAO-A = biological target: T2, hMAO-A (Homo sapiens, UniProt P21397); test: biochemical; conditions: read-out: hMAO-A % inhibition at 10 μM ± SD; 10 μM inhibitor, human recombinant MAO-A, n = 3
T2 construct: purchased Aldrich (Milan, Italy)
T2 sequence (P21397 1-527): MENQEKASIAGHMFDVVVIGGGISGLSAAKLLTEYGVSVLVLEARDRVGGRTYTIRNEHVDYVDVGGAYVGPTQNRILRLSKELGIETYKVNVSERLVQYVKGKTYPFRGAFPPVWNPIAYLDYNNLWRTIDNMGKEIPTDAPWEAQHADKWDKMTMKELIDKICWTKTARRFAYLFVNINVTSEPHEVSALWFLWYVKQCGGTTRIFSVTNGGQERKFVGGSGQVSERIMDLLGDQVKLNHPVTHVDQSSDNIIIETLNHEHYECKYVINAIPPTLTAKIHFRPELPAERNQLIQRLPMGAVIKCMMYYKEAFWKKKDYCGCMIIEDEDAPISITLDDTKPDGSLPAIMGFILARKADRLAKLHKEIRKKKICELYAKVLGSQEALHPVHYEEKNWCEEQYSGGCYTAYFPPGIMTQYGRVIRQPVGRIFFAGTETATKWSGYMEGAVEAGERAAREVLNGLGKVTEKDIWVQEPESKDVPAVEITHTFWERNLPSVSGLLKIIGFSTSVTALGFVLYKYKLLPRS
Protocol: as §1
(§2) Incubations were set at 37 °C in phosphate buffer with a pH of 7.4 for 20 min before the addition of enzyme, and the fluorescence was measured after additional incubation of 30 min.

hMAO-B = biological target: T3, hMAO-B (Homo sapiens, UniProt P27338); test: biochemical; conditions: human recombinant MAO-B; for inhibition at 10 µM: read-out: hMAO-B % inhibition at 10 μM ± SD, 10 μM inhibitor, n = 3; for IC50: kynuramine, 37 °C, pH 7.4, n = 3, read-out: hMAO-B IC50 ± SEM
T3 construct: purchased Aldrich (Milan, Italy)
T3 sequence (P27338 1-520): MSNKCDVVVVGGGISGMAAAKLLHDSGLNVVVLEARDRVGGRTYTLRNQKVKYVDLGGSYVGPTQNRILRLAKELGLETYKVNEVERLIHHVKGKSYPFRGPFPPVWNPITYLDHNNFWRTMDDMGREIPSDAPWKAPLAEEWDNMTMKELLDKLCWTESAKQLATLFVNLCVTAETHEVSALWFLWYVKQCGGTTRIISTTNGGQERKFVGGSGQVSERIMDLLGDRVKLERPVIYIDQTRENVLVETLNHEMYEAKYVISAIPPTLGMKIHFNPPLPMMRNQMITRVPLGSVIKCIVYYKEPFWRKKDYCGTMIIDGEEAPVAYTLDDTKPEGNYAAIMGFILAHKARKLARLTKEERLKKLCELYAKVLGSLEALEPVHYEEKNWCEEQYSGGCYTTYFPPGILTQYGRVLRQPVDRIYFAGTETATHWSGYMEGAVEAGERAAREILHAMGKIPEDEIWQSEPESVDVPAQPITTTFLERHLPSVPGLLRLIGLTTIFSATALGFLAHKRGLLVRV
Protocol: as §1, §2

[1] = in silico and in vitro studies; cited from earlier work
hAChE = test system: hAChE; design: method as in PMID 10213168; conditions: read-out: hAChE IC50 in vitro; cited from earlier work

Structure (SMILES): COc1cccc(N2CCN(CCCOc3c(C(C)=O)c(C)cc4oc(=O)cc(C)c34)CC2)c1 [Compound 7, 6-acetyl-4,7-dimethyl-5-[3-(4-(3-methoxyphenyl)piperazin-1-yl)propoxy]coumarin]
- inhibition at 10 µM (human recombinant AChE): 46 ± 3%
- inhibition at 10 µM (hMAO-A): 39 ± 3%
- inhibition at 10 µM (hMAO-B): 35 ± 3%

Structure (SMILES): COc1ccccc1N1CCN(CCCCOc2c(C(C)=O)c(C)cc3oc(=O)cc(C)c23)CC1 [Compound 6, 6-acetyl-4,7-dimethyl-5-[4-(4-(2-methoxyphenyl)piperazin-1-yl)butoxy]coumarin]
- inhibition at 10 µM (human recombinant AChE): 48 ± 1%
- inhibition at 10 µM (hMAO-A): 30 ± 5%
- inhibition at 10 µM (hMAO-B): 43 ± 3%

Structure (SMILES): COc1ccccc1N1CCN(CCCOc2ccc3c(C)cc(=O)oc3c2C(C)=O)CC1 [Compound 9, 8-acetyl-7-{3-[4-(2-methoxyphenyl)piperazin-1-yl]propoxy}-4-methylchromen-2-one]
- inhibition at 10 µM (human recombinant AChE): 59 ± 7%
- inhibition at 10 µM (hMAO-A): 32 ± 4%
- IC50 (hMAO-B): 4.76 ± 0.34 µM

Structure (SMILES): COc1cccc(N2CCN(CCCOc3cc(C)cc4oc(=O)cc(C)c34)CC2)c1 [Compound 3, 4,7-dimethyl-5-[3-(4-(3-methoxyphenyl)piperazin-1-yl)propoxy]coumarin]
- inhibition at 10 µM (human recombinant AChE): 53 ± 2%
- inhibition at 10 µM (hMAO-A): 39 ± 5%
- IC50 (hMAO-B): 1.88 ± 0.45 µM
- pharmacokinetic properties [1]: excellent pharmacokinetic properties

Structure (SMILES): COc1cccc(N2CCN(CCCCOc3cc(C)cc4oc(=O)cc(C)c34)CC2)c1 [Compound 4, 4,7-dimethyl-5-[4-(4-(3-methoxyphenyl)piperazin-1-yl)butoxy]coumarin]
- inhibition at 10 µM (human recombinant AChE): 56 ± 1%
- inhibition at 10 µM (hMAO-A): 38 ± 4%
- IC50 (hMAO-B): 3.18 ± 0.63 µM

Structure (SMILES): COc1ccccc1N1CCN(CCCCOc2cc(C)cc3oc(=O)cc(C)c23)CC1 [Compound 2, 4,7-dimethyl-5-[4-(4-(2-methoxyphenyl)piperazin-1-yl)butoxy]coumarin]
- inhibition at 10 µM (human recombinant AChE): 61 ± 4%
- inhibition at 10 µM (hMAO-A): 19 ± 1%
- inhibition at 10 µM (hMAO-B): 33 ± 2%

Structure (SMILES): COc1cccc(N2CCN(CCCCOc3c(C(C)=O)c(C)cc4oc(=O)cc(C)c34)CC2)c1 [Compound 8, 6-acetyl-4,7-dimethyl-5-[4-(4-(3-methoxyphenyl)piperazin-1-yl)butoxy]coumarin]
- inhibition at 10 µM (human recombinant AChE): 54 ± 8%
- inhibition at 10 µM (hMAO-A): 55 ± 2%
- inhibition at 10 µM (hMAO-B): 26 ± 2%

Structure (SMILES): COc1ccccc1N1CCN(CCCOc2cc(C)cc3oc(=O)cc(C)c23)CC1 [Compound 1, 4,7-dimethyl-5-{3-[4-(2-methoxyphenyl)piperazin-1-yl]propoxy}coumarin]
- inhibition at 10 µM (human recombinant AChE): 61 ± 1%
- inhibition at 10 µM (hMAO-A): 44 ± 4%
- IC50 (hMAO-B): 2.18 ± 0.48 µM

Structure (SMILES): COc1ccccc1N1CCN(CCCOc2c(C(C)=O)c(C)cc3oc(=O)cc(C)c23)CC1 [Compound 5, 6-acetyl-4,7-dimethyl-5-[3-(4-(2-methoxyphenyl)piperazin-1-yl)propoxy]coumarin]
- inhibition at 10 µM (human recombinant AChE): 50 ± 6%
- inhibition at 10 µM (hMAO-A): 22 ± 3%
- inhibition at 10 µM (hMAO-B): 34 ± 2%

Structure (SMILES): COc1ccccc1N1CCN(CCCCOc2ccc3c(C)cc(=O)oc3c2C(C)=O)CC1 [Compound 10, 8-acetyl-7-{4-[4-(2-methoxyphenyl)piperazin-1-yl]butoxy}-4-methylchromen-2-one]
- IC50 (human recombinant AChE): 1.52 ± 0.66 µM
- inhibition at 10 µM (hMAO-A): 52 ± 4%
- inhibition at 10 µM (hMAO-B): 24 ± 1%
- pharmacokinetic properties [1]: excellent pharmacokinetic properties

Structure (SMILES): COc1cc2oc(=O)c(C)c(C)c2cc1OCCCN1CCN(c2ccccc2OC)CC1 [Ensaculin]
- IC50 (hAChE): 0.36 µM
